From patent US5578585A, “Pleuromutilin derivative complexes” (Biochemie Gesellschaft m.b.H., priority 1991, dated 1996)

Experiments:
[1] = Feed stability: storage in ready piglet feed, content by HPLC; assay type: physicochemical; conditions: feed mixture, 200 ppm, 30°
Procedure: (§1) As model feed a ready feed for piglets of the following composition is used:
Various forms of the preparation are mixed with the ready feed in a concentration of 200 ppm of compound of formula I and stored for several weeks at 30°. Both the starting value of the fresh mixtures and the content values after storage for 2, 4 and 8 weeks are analysed by high pressure liquid chromatography (HPLC).

[2] = Feed stability: optimum ratio of compound of formula I to β-cyclodextrin; assay type: physicochemical; conditions: feed mixtures, ratio to β-cyclodextrin varied
Procedure: as §1
Various forms of the preparation are mixed with the ready feed in a concentration of 200 ppm of compound of formula I and stored for several weeks at 30°. […]
For determination of the optimum ratio of compound of formula I to cyclodextrin, investigations are carried out using various concentrations of cyclodextrin. Results as regards stability in feed mixtures are summarized in Table 2 [in the first column "ratio" means the ratio of compound of formula I (hydrochloride) to β-cyclodextrin]: […]

[3] = Oral absorption in rats, plasma concentration by microbiological analysis; assay type: in vivo; conditions: rat, 25 mg/kg body weight, pure compound in drinking water
Procedure: (§2) Absorption following administration to rats and pigs of 25 mg/kg body weight of a preparation according to Example 3 is tested and compared with pure compound of formula I (hydrochloride) in the drinking water. Blood samples are taken after a period of 24 hours and the concentration of active substance in plasma determined by microbiological analysis. The results in Table 3 show the absorption of the compound of formula I when administered in the form of a complex of the invention: […]

[4] = Oral absorption in pigs, plasma concentration by microbiological analysis; assay type: in vivo; conditions: pig, 25 mg/kg body weight, pure compound in drinking water
Procedure: as §2

[5] = Phase-solubility diagram (inclusion compound type, complex binding constant) with β-cyclodextrin; assay type: physicochemical; conditions: compound of formula I in the form of the base; with cyclodextrin (printed without Greek letter)
Source text: (§3) Based on the phase-solubility diagram (see "Methods of investigating and preparing inclusion compounds and their industrial uses" in D. Duchene, "Cyclodextrins and their Industrial Uses", Editions de Sante [1987]), the following types of inclusion compounds are obtained with the compound of formula I in the form of the base and […]

[6] = Phase-solubility diagram (inclusion compound type, complex binding constant) with γ-cyclodextrin; assay type: physicochemical; conditions: compound of formula I in the form of the base
Source text: as §3

[7] = Stability in conventional complete feed mixtures (general statement); assay type: physicochemical
[8] = test system: gram-positive and gram-negative bacteria; conditions: many gram-positive and gram-negative bacteria; free base, acid addition or quaternary salt form; cited from earlier work
[9] = read-out: AUC (area under curve)
[10] = read-out: Cmax (maximum plasma concentration)

C=C[C@]1(C)C[C@@H](OC(=O)CSC(C)(C)CNC(=O)[C@H](N)C(C)C)[C@]2(C)[C@H](C)CC[C@]3(CCC(=O)[C@H]32)[C@@H](C)[C@@H]1O [14-O-[1-((D)-2-amino-3-methylbutyrylamino)-2-methylpropan-2-ylthioacetyl]mutilin]
Content after 2 weeks ([1]; after 2 weeks, 20160 min): 15% | Content after 4 weeks ([1]; after 4 weeks, 40320 min): 8% | Content after 8 weeks ([1]; after 8 weeks, 80640 min): 6% | Content, initial value ([1]; initial value): 100% | Content after 1 month ([2]; after 1 month, 43800 min): 9% | Content after 2 months ([2]; after 2 months, 87600 min): 9% | Content after 3 months ([2]; after 3 months, 131400 min): 7% | Content, initial value ([2]; initial value): 100% | AUC [3, 9]: 139000 ng·h/mL | Cmax [3, 10]: 8600 ng/mL | AUC [4, 9]: 21400 ng·h/mL | Cmax [4, 10]: 1200 ng/mL

C=C[C@]1(C)C[C@@H](OC(=O)CSC(C)(C)CNC(=O)[C@H](N)C(C)C)[C@]2(C)[C@H](C)CC[C@]3(CCC(=O)[C@H]32)[C@@H](C)[C@@H]1O [compound of formula I, 14-O-[1-((D)-2-amino-3-methylbutyrylamino)-2-methylpropan-2-ylthioacetyl]mutilin]
type of inclusion compound (phase-solubility diagram) [5]: type AL | type of inclusion compound (phase-solubility diagram) [6]: type BS | breakdown by constituents of conventional complete feed mixtures [7]: broken down very rapidly | antibacterial effectiveness [8]: highly effective
